We go through 2 compounds from patent US11021457B2, “Class of isoindolone-imide ring-1,3-dione-2-ene compounds, composition and use thereof” (WIGEN BIOMEDICINE TECHNOLOGY (SHANGHAI) CO., LTD., priority 2017, dated 2021).

One series deals with SU-DHL6. The experiment in a line: Inhibition of tumor cell proliferation, CellTiter-Glo, SU-DHL6. Conditions: compound concentration 50 μM, 72 hours. The format is cell-based. The method, boiled down:
(§1)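 Activity is graded from survival at 50 μM: + for 60 to under 90%, ++ for over 30 to 60%, +++ for 30% or less. Survival was measured luminescently (CellTiter-Glo) 72 h after dosing, relative to untreated and blank wells; 2000-10000 cells/well, 37° C, 5% CO2.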

Another series has as its system RPMI-8226. The experiment in a line: Inhibition of tumor cell proliferation, CellTiter-Glo, RPMI-8226. In kind it is cell-based. The following applies: compound concentration 50 μM, 72 hours. A digest of the protocol:
as §1
(In general: In ATP-based viability assays light output follows the ATP content of the culture.)

The next series has as its system K562. The experiment in a line: Inhibition of tumor cell proliferation, CellTiter-Glo, K562. The following applies: compound concentration 50 μM, 72 hours. In kind it is cell-based. A digest of the protocol: as §1
The next series deals with A549. The experiment in a line: Inhibition of tumor cell proliferation, CellTiter-Glo, A549. The following applies: compound concentration 50 μM, 72 hours. In kind it is cell-based. A digest of the protocol: as §1
A further series deals with MDA-MB-453. Kind of series: Inhibition of tumor cell proliferation, CellTiter-Glo, MDA-MB-453. In kind it is cell-based. Conditions: compound concentration 50 μM, 72 hours. A digest of the protocol:
as §1

The next series relates to BxPC-3. The experiment in a line: Inhibition of tumor cell proliferation, CellTiter-Glo, BxPC-3. The format is cell-based. Conditions: compound concentration 50 μM, 72 hours. A digest of the protocol:
as §1

Series [1] relates to human multiple myeloma RPMI8226 cell xenograft tumor. Kind of series: In-vivo anti-tumor efficacy in multiple myeloma xenograft tumor model (tumor volume, T/C, TGI). Details: species or system mouse. Conditions: for Average volume (mm3) Start of the treatment Day 1 / Average volume (mm3) End of the treatment Day 21 / T/C %: QD × 21; for Average volume (mm3) End of the treatment Day 21 / T/C %: Day 21. On the procedure:
The in-vivo anti-tumor efficacy of the compound 1, lenalidomide, dexamethasone and a combination of the compound 1 or lenalidomide with dexamethasone in human multiple myeloma RPMI8226 cell xenograft tumor model was evaluated.
(§2) The test animals were female CB17 SCID mice. Human RPMI8226 cells were cultured in RPMI1640 medium containing 10% heat-inactivated fetal bovine serum and 1% penicillin-streptomycin double antibody in an incubator with 5% CO2 at 37° C. When the cells were in an exponential growth phase, the cells were harvested, counted, and subcutaneously inoculated into the right dorsal portion of each mouse. The mice were grouped and administered when the average tumor volume reached about 150 mm^3. Grouping method: the animals were weighed and measured for the tumor volume before administration, and grouped by block design according to the tumor volume.
(§3) Whether the tumor growth could be inhibited, delayed or cured was investigated. The diameter of the tumor was measured by a vernier caliper. The tumor volume was calculated by a formula: V=0.5×a×b^2, in which a and b respectively represent the long diameter and short diameter of the tumor. The anti-tumor effect T/C (%) of the compound was evaluated by a formula: T/C %=TRTV/CRTV×100% (TRTV: RTV of the treatment group; CRTV: RTV of the negative control group). The relative tumor volume RTV was calculated by a formula: RTV=Vt/V0, where V0 is the measured tumor volume at the time of grouping and administration (i.e. day 0), and Vt is the tumor volume at each measurement. T/C (%) reflects the inhibition rate on tumor growth. […] The weight of the mice bearing tumor in each group was recorded and analyzed, as shown in FIGS. 1 and 2 and Table 14, and the effect of the compound on the tumor volume of the mice bearing tumor is shown in FIGS. 3 and 4 and Table 15.

A short description of series [2]: Body weight of tumor-bearing mice in the in-vivo pharmacodynamic test. Details: species or system mouse. The following applies: for Average body weight (g) Start of the treatment Day 1 / Average body weight (g) End of the treatment Day 21 / Average RCBW (%)/end of the treatment Day 21: QD × 21; for Average body weight (g) Start of the treatment Day 1 / Average body weight (g) End of the treatment Day 21: x ± SEM; for Average RCBW (%)/end of the treatment Day 21: Day 21 relative to Day 1. Here is the method: as §2, §3

The target in another series is LC3B (Homo sapiens (Human), UniProt Q9GZQ8). Kind of series: Fluorescence polarization experiment targeting LC3B (GST-LC3B with FITC-labeled peptide). Conditions: GST-LC3B 180 nM, FITC-labeled peptide 18 nM, 25° C. On the technique in general: In fluorescence polarisation assays a small probe gives low polarisation when free and higher when bound to something large.
Where [3] appears, read: Compound 1 53 mg/kg + Dexamethasone 1 mg/kg.
The mark [4] stands for this setting: Compound 1 53 mg/kg p.o + Dexamethasone 1 mg/kg i.p.
The mark [5] stands for this setting: Lenalidomide 30 mg/kg + Dexamethasone 1 mg/kg.
[6] abbreviates: Lenalidomide 30 mg/kg p.o, RPMI8226 tumor-bearing mice.
Where [7] appears, read: Lenalidomide 30 mg/kg p.o + Dexamethasone 1 mg/kg i.p.
[8] abbreviates: Lenalidomide 30 mg/kg p.o., RPMI8226 tumor-bearing mice.

As a reminder, the IC50 is the concentration needed to halve the response being measured. High values mean weaker potency, low ones greater potency. Take `O=C1CCC(N2Cc3c(NC=C4C(=O)CC(c5ccccc5)CC4=O)cccc3C2=O)C(=O)N1` (stereo not drawn) [Compound 1]: the “Inhibitory activity against proliferation (cell survival rate) SU-DHL6” value with SU-DHL6 is recorded as “+++ (survival rate (%)≤30)”. Besides, in the series with RPMI-8226, the “Inhibitory activity against proliferation (cell survival rate) RPMI-8226” value is on record as “+++ (survival rate (%)≤30)”. Further, the “Inhibitory activity against proliferation (cell survival rate) K562” value in the series with K562 is recorded as “+++ (survival rate (%)≤30)”. In the series on A549, the “Inhibitory activity against proliferation (cell survival rate) A549” value is listed as “+++ (survival rate (%)≤30)”. Moreover, in the series on MDA-MB-453, the “Inhibitory activity against proliferation (cell survival rate) MDA-MB-453” value was “++ (30<survival rate (%)≤60)”. Also, in the series with BxPC-3, the “Inhibitory activity against proliferation (cell survival rate) BxPC-3” value is recorded as “++ (30<survival rate (%)≤60)”. The Tumor inhibition effect result in series [1] (17.7 mg/kg, versus lenalidomide 30 mg/kg) is “comparable to that of lenalidomide”; in series [1] (in combination with dexamethasone), “stronger tumor inhibition effect than lenalidomide”. Besides, the Anti-tumor effect entry in series [1] (53 mg/kg (same molar dose as lenalidomide)) was “significantly higher than lenalidomide”. The “Average volume (mm3) Start of the treatment Day 1” value (“Average volume (mm3) Start” for short) amounted to 141.27 ± 14.61 mm3 in [1] (Compound 1 17.7 mg/kg p.o), 141.54 ± 14.27 mm3 in series [1] (setting [3]) and 142.38 ± 15.41 mm3 in series [1] (Compound 1 53 mg/kg p.o). Besides, the “Average volume (mm3) End of the treatment Day 21” value (“Average volume (mm3) End” for short) in [1] (Compound 1 17.7 mg/kg p.o) is 881.71 ± 175.49 mm3; in series [1] (setting [3]), 179.24 ± 48.35 mm3; in series [1] (Compound 1 53 mg/kg p.o) it was 674.46 ± 137.82 mm3. The results for the T/C % in [1] (Compound 1 17.7 mg/kg p.o), in series [1] (setting [3]) and in series [1] (Compound 1 53 mg/kg p.o) were 47.20%, 9.60% and 36.11%, respectively. Further, the “Average body weight (g) Start of the treatment Day 1” value (“Average body weight (g) Start” for short) in [2] (Compound 1 17.7 mg/kg p.o) is 21.60 ± 0.36 g; in series [2] (setting [4]), 21.41 ± 0.32 g; in [2] (Compound 1 53 mg/kg p.o), 21.15 ± 0.36 g. Also, the “Average body weight (g) End of the treatment Day 21” value (“Average body weight (g) End” below) in series [2] (Compound 1 17.7 mg/kg p.o) is 22.49 ± 0.39 g; in series [2] (setting [4]) it was 20.46 ± 0.31 g; in series [2] (Compound 1 53 mg/kg p.o), 22.25 ± 0.31 g. The “Average RCBW (%)/end of the treatment Day 21” value (shortened to “Average RCBW (%)/end”) in series [2] (Compound 1 17.7 mg/kg p.o) is given as 4.13%; in series [2] (setting [4]) it was −4.46%; in [2] (Compound 1 53 mg/kg p.o) it was 5.27%. Also, the “Effect on body weight of tumor-bearing mice” value in [2] (in combination with dexamethasone, attributed to dexamethasone) was “weight loss”; in series [2] (throughout the administration period) it was “does not affect the body weight”. For the same compound, the IC50 against LC3B lay within 3 to 15 µM.

Turning to `Nc1cccc2c1CN(C1CCC(=O)NC1=O)C2=O` (stereo not drawn) [Lenalidomide, reference compound], in series [1] (setting [5]), the “Average volume (mm3) Start” value is given as 141.35 ± 15.02 mm3, the “Average volume (mm3) End” value came out at 233.72 ± 47.47 mm3 and the T/C % amounted to 12.51%. Besides, in series [1] (setting [6]), the “Average volume (mm3) Start” value came to 140.44 ± 15.82 mm3 and the “Average volume (mm3) End” value is on record as 927.82 ± 164.85 mm3. Moreover, the T/C % in [1] (Lenalidomide 30 mg/kg p.o) was 49.67%. Further, in series [2] (setting [7]), the “Average body weight (g) Start” value stood at 21.23 ± 0.34 g, the “Average body weight (g) End” value stood at 20.08 ± 0.25 g and the “Average RCBW (%)/end” value is given as −5.33%. Also, in series [2] (setting [8]), the “Average body weight (g) Start” value is reported as 21.02 ± 0.23 g and the “Average body weight (g) End” value was found to be 21.90 ± 0.30 g. Further, the “Average RCBW (%)/end” value in series [2] (Lenalidomide 30 mg/kg p.o.) is 4.18%.
